Source: ChEMBL document CHEMBL1201862, “PubChem BioAssay data set” (2004)
The source made the active and inactive calls.

Legend:
[1] = system: HEK293; assay: cells; conditions: Homo sapiens
[2] = system: HEK293; assay: cells; conditions: Homo sapiens; remark: listed apart in the source
[3] = inhibitors of intracellular T. cruzi replication, confirmation, NIH3T3 host cells, beta-gal luminescence (AID 2044); assay type: functional, cell-based;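 further: intracellular parasites grown in NIH/3T3 mouse fibroblasts as host cells; luminescent beta-galactosidase reporter signal from transgenic T. cruzi replicating inside host cells; inhibitors lower the luminescence signal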
[4] = Fluorescence-based cell-based high throughput dose response assay for inhibitors of the interaction of nucleotide-binding oligomerization domain containing 2 (NOD2) and the receptor-interacting serine-threonine kinase 2 (RIPK2).; assay type: functional; conditions: Homo sapiens
[5] = cytotoxicity toward NIH3T3 fibroblasts, dose response, counter-screen, cell-based, ATP luminescence, mouse fibroblasts (AID 2010); assay type: functional;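 further: cells exposed to compound for about 90 hours before reading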
[6] = molecular target: Estrogen receptor beta (Homo sapiens, UniProt Q92731);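 further: recombinant ER-beta bound to coactivator SRC1 peptide in presence of estradiol agonist; inhibitors block coactivator peptide binding and lower the FRET signal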
Sequence of Estrogen receptor beta (Q92731 whole entry): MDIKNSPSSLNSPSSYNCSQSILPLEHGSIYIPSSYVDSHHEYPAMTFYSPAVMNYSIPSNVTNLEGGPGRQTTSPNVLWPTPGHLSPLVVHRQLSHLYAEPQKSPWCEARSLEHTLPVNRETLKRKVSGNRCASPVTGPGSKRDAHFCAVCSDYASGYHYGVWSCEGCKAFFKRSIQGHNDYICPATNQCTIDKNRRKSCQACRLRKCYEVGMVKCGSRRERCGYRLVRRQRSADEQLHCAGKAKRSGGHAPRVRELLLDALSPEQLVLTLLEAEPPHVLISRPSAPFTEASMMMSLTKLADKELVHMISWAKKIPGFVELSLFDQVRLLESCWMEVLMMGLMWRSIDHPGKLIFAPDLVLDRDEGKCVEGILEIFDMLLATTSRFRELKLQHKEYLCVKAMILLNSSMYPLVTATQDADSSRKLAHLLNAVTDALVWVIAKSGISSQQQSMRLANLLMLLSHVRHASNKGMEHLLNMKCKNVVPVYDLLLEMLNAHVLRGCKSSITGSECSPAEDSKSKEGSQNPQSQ

[7] = molecular target: T1, Heat shock factor protein 1 (Mus musculus, UniProt P38532); assay: inhibition of MG132-induced HSE-luciferase signal, confirmation, cell-based, NIH3T3, luminescence, dose retest (AID 2382); assay type: functional;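 further: NIH3T3 fibroblasts with HSF1-driven luciferase reporter stressed by proteasome inhibitor MG132; luminescence from HSF1-driven luciferase expression after 8 hours of MG132 stress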
T1 sequence (P38532 whole entry): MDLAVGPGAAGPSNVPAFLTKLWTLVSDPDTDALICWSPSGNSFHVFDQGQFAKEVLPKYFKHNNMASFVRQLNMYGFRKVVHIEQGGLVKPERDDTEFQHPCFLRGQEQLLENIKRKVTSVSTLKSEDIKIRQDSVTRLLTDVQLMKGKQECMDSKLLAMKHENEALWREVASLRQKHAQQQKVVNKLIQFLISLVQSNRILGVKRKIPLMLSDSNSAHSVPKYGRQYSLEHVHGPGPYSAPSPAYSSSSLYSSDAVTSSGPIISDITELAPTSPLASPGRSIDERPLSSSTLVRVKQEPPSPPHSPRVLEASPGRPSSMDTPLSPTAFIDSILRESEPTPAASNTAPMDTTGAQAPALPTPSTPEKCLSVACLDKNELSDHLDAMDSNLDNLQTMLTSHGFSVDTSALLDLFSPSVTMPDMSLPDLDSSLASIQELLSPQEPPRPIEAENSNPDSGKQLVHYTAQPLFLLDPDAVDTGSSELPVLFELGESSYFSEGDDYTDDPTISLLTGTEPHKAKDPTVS

[8] = molecular target: Albumin (Bos taurus, UniProt P02769); assay: Counterscreen for inhibitors of T-cell receptor (TCR)-CD3 interaction: Fluorescence-based biochemical high throughput dose response assay to identify inhibitors of T-cell receptor (TCR)-CD3 interaction using a TAMRA-labeled BSA probe.; assay type: functional
Sequence of Albumin (P02769 whole entry): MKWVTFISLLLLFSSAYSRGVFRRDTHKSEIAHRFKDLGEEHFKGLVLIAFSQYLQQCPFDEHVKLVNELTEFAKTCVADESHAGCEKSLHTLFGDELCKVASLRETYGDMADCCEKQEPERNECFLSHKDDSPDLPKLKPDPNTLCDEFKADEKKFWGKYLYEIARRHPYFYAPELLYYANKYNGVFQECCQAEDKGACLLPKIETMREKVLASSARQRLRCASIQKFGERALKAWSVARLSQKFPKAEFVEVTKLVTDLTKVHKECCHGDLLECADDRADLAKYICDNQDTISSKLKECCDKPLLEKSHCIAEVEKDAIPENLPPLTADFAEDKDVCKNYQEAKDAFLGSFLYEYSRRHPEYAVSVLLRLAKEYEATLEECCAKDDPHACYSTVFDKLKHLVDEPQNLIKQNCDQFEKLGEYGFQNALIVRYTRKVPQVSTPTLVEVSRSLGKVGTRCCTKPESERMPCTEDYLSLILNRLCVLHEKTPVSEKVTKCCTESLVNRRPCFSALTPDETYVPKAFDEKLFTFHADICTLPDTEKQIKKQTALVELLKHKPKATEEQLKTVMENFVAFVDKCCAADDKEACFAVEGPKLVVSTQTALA

[9] = Counterscreen for AddAB inhibitors: absorbance-based bacterial cell-based high throughput dose response assay for inhibitors of bacterial viability. [Related pubchem assays (depositor defined):AID435030, AID449728, AID449731, AID488942, AID488955, AID488956]; assay type: functional
[10] = NIH-3T3 fibroblast cytotoxicity, dose response, cytotoxicity control, cell-based, fluorescence, Alamar Blue, secondary assay (AID 2327); assay type: functional;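 further: NIH-3T3 mouse fibroblasts cultured with fluconazole at 8 µg/mL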
[11] = molecular target: T2, Exodeoxyribonuclease V (Escherichia coli (strain K12), UniProt P04993+P07648+P08394); assay: E. coli RecBCD inhibitors, dose response, counter-screen for AddAB inhibitor project, absorbance, V66 E. coli, mutant T4 phage (AID 492957); assay type: functional, cell-based, Escherichia coli str. K-12 substr. MG1655
T2 sequence (P04993 whole entry): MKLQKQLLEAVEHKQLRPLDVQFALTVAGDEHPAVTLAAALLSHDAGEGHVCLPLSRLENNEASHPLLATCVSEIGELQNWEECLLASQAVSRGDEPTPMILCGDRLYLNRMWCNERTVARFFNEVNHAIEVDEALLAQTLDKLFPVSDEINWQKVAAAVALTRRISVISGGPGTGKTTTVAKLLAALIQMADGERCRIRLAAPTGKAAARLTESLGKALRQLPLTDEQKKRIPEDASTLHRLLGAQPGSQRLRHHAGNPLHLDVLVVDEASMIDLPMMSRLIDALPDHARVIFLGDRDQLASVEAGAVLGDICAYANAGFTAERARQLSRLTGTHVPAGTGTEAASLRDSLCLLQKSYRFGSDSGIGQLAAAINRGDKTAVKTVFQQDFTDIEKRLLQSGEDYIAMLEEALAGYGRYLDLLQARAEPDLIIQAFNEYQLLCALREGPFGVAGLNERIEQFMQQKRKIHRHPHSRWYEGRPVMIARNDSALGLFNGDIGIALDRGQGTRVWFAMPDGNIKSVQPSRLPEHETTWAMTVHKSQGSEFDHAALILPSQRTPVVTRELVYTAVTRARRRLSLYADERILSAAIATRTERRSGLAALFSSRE
T2 sequence (P07648 whole entry): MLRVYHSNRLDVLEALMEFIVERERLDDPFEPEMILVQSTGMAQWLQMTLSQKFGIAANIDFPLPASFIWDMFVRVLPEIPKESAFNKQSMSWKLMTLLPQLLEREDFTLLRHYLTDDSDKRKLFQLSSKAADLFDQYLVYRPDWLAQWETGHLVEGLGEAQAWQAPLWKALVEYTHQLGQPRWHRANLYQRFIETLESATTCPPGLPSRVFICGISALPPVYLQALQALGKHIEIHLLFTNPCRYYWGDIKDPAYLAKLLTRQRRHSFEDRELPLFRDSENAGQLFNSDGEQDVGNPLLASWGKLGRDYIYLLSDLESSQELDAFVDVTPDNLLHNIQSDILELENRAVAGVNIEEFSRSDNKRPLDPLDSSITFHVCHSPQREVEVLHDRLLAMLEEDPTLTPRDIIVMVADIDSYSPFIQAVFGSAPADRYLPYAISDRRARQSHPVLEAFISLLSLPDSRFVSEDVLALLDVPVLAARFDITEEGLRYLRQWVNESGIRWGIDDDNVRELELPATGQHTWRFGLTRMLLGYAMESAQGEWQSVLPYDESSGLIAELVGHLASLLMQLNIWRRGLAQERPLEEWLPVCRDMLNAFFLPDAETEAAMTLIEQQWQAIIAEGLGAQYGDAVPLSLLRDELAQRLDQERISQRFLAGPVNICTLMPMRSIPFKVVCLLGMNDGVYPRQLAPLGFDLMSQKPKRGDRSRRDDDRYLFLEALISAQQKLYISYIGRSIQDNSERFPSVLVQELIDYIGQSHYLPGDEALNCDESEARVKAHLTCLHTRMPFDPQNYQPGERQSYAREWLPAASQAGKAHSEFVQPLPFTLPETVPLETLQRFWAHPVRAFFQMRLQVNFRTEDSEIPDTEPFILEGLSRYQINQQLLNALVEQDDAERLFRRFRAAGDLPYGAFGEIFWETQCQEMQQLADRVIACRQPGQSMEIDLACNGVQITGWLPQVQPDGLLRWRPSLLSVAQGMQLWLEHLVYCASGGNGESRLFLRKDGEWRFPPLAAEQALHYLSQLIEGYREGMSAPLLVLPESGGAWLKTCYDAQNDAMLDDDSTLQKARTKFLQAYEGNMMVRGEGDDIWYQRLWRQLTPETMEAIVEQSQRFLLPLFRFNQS
T2 sequence (P08394 whole entry): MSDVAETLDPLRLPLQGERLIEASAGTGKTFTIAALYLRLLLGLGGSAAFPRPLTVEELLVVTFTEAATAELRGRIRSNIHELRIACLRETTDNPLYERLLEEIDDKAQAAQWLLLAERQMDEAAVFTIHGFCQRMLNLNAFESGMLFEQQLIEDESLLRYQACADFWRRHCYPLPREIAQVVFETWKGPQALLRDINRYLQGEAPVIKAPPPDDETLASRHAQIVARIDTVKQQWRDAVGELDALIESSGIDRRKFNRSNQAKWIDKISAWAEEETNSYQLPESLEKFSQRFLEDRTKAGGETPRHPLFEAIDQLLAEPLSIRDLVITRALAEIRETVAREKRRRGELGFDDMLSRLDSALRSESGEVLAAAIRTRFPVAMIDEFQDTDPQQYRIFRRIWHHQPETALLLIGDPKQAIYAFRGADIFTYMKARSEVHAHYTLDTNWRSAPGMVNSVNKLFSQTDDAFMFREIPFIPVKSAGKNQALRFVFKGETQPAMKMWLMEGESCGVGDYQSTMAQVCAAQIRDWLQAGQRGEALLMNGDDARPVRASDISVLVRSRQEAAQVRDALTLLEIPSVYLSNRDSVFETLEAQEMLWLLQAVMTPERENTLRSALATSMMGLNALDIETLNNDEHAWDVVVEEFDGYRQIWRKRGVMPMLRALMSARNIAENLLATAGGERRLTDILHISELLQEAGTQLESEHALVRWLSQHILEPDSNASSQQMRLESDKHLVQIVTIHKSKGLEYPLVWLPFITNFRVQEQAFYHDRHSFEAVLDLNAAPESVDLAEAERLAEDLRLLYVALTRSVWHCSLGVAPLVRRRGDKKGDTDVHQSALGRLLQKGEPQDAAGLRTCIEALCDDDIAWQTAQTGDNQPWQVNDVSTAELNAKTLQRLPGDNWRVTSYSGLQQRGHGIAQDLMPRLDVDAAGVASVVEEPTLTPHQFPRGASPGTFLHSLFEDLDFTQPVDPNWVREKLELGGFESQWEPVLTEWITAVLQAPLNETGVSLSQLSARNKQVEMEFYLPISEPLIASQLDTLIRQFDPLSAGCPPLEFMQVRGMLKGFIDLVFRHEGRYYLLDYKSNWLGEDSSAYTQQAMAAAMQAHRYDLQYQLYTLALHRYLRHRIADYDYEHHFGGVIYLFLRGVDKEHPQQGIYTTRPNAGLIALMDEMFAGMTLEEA

[12] = insulin promoter down-regulators in MIN6 cells, imaging, high-content screening, mouse beta cells (AID 1628); assay type: functional
[13] = cytotoxicity in MIN6 insulinoma cells, dose response, cytotoxicity control, cell-based, mouse insulinoma (AID 2122); assay type: functional;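 further: confirmatory high-throughput counterscreen run to flag cytotoxic compounds; mouse MIN-6 beta cells carrying an insulin promoter eGFP reporter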
[14] = inhibitors of firefly luciferase expression or activity, dose response, H4 neuroglioma cells, luminescence (AID 1990); assay type: functional, cell-based
[15] = Luminescence Cell-Based Dose Response HTS to Identify Inhibitors of 5'UTR Stem-Loop Driven Prion Protein mRNA Translation in H4 Neuroglioblastoma Cells. [Related pubchem assays: 1827 (Project Summary), 1813 (Primary HTS)]; assay type: functional
[16] = inhibitors of SNCA 5'UTR-driven reporter translation, confirmation, H4 neuroglioma cells, luminescence (AID 1988); assay type: functional, cell-based
[17] = Luminescence Cell-Based Dose Retest to Confirm Inhibitors of Cancer Stem Cells. [Related pubchem assays (depositor defined):AID2717, AID2721]; assay type: functional; conditions: Homo sapiens
[18] = system: INS1; assay: beta cell apoptosis inhibitors, cytokine rescue, dose response, luminescence, retest (AID 449756); assay type: functional, cell-based; conditions: Rattus norvegicus;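 further: cell death triggered by IL-1 beta plus TNF-alpha plus IFN-gamma mixture; protective hits raise ATP signal compared with cytokine alone wells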
[19] = cells; assay type: functional, cell-based
[20] = cells; assay type: functional, cell-based; remark: listed apart in the source

CCc1ccc(C(=O)Cn2ncc(Cl)c(Cl)c2=O)cc1
EC50 [1]: > 59.6 µM (inactive) | EC50 [2]: > 59.6 µM (inactive) | EC50 [3]: 2.19 µM (active) | IC50 [4]: 3.38 µM (active) | EC50 [5]: 4.03 µM (active) | IC50 [6]: > 50 µM (not active) | EC50 [7]: 5.77 µM (active)

COc1ccccc1NC(=O)NNC(=O)c1cc2ccccc2cc1O
IC50 [8]: > 94.1 µM (inactive) | IC50 [9]: > 119 µM (inactive) | EC50 [10]: > 160 µM (inactive) | IC50 [11]: > 119 µM (inactive)

CCN(CC)C1=CC(=[N+]2CCCC2)CC(C)(C)C1
IC50 [12]: < 0.25 µM (active) | EC50 [3]: 0.732 µM (active) | EC50 [5]: > 60 µM (inconclusive) | IC50 [13]: < 0.25 µM (active)

CCN1CCN(S(=O)(=O)c2cc(OCC(=O)NC3CCCCC3)c(C)cc2Cl)CC1
IC50 [12]: 2.29 µM (active) | IC50 [13]: 2.03 µM (active)

CC1(c2ccc([N+](=O)[O-])cc2)CC(C)(C)N(C(=O)c2ccccc2)c2ccccc21 (stereo not given)
IC50 [12]: 7.17 µM (active) | IC50 [13]: 7.16 µM (active)

C/C=C/CSc1nc2c(c(=O)[nH]c(=O)n2C)n1Cc1ccc(C)cc1
EC50 [14]: 21.2 µM (active) | EC50 [1]: > 59.6 µM (inactive) | EC50 [2]: > 59.6 µM (inactive) | EC50 [15]: > 120 µM (not active) | EC50 [16]: 21.4 µM (active)

Cc1cc([N+](=O)[O-])nn1Cc1ccc(C(=O)N/N=C/c2ccc(O)cc2O)cc1
AC50 [17]: 1.71 µM (active) | AC50 [18]: 1.37 µM (active) | EC50 [19]: 9.79 µM (active) | IC50 [9]: > 119 µM (inactive) | EC50 [20]: > 350 µM (not active) | IC50 [11]: > 119 µM (inactive)
